Source: PMC4730117, “In vitro Biochemical Characterization of All Barley Endosperm Starch Synthases” (Frontiers in Plant Science, 2016)
Each block holds one molecule with its values, some of them ahead of it.

What was measured:
HvSSI = biological target: T1, HvSSI (Hordeum vulgare, UniProt Q9M5A3); test: biochemical; design: Thermofluor (differential scanning fluorimetry, Sypro orange), shift of melting temperature of HvSSI versus no additive; details: 0.1 mg/mL HvSSI, 1X Sypro orange, 20 mM Tris pH 8.0, 100 mM NaCl, read-out: Δ Tm to reference; for ΔTm at 10000 µM: 10 mM
T1 construct: gene SSI; without predicted chloroplast transit peptide, N-terminal His-tag, codon-optimised, E. coli
T1 sequence (Q9M5A3 32-643): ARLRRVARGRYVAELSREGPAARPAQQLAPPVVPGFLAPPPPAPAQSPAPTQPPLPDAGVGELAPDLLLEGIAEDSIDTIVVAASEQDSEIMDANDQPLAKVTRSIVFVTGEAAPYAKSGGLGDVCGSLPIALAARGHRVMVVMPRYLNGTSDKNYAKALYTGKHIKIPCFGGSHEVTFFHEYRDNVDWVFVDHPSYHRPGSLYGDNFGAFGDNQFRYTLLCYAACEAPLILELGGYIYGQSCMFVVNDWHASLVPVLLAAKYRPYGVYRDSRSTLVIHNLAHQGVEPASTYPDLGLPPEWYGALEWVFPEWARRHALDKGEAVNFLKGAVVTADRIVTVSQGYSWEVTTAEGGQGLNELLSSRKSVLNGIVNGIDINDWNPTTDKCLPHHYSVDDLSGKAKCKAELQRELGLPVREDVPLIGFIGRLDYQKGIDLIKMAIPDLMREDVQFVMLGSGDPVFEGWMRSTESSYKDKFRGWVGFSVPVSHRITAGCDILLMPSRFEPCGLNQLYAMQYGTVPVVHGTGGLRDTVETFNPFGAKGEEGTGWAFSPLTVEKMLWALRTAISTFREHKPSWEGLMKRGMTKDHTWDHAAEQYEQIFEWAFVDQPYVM
Description: HvSSI unfolding temperatures were measured with a variant of the Thermofluor method (Niesen et al., [2007]). Details are given in S.I. The effect of additives on SSI stability was studied in some detail with the thermofluor assay; details for many additives are given in S.I. The strongest effects were from sugars, which increased protein stability by 1°C for every 50 mM hexose present as oligosaccharides, with glucose and other monosaccharides having only half the effect.

[1] = substrate: Nc1ncnc2c1ncn2[C@@H]1O[C@H](COP(=O)(O)OP(=O)(O)O[C@H]2O[C@H](CO)[C@@H](O)[C@H](O)[C@H]2O)[C@@H](O)[C@H]1O; test: coupled spectrophotometric assay (pyruvate kinase / lactate dehydrogenase, NADH); format: biochemical, Hordeum vulgare; details: 10 mM maltotriose acceptor, 50 mM Bicine pH 8.5, 25 mM KOAc, 2 mM MgCl2, 37°C
Source text: coupled spectrophotometric assay (pyruvate kinase / lactate dehydrogenase, NADH) on […]

[2] = substrate: Nc1ncnc2c1ncn2[C@@H]1O[C@H](COP(=O)(O)OP(=O)(O)O[C@H]2O[C@H](CO)[C@@H](O)[C@H](O)[C@H]2O)[C@@H](O)[C@H]1O; test: as above; format: biochemical, Hordeum vulgare; details: 10 mM maltotriose acceptor, 50 mM Bicine pH 8.5, 25 mM KOAc, 2 mM MgCl2, 37°C; remark: listed apart in the source
Source text: coupled spectrophotometric assay (pyruvate kinase / lactate dehydrogenase, NADH) on HvSSI

[3] = substrate: Nc1ncnc2c1ncn2[C@@H]1O[C@H](COP(=O)(O)OP(=O)(O)O[C@H]2O[C@H](CO)[C@@H](O)[C@H](O)[C@H]2O)[C@@H](O)[C@H]1O; test: as above; format: biochemical, Hordeum vulgare; details: 100 mM maltose (DP = 2) acceptor, 50 mM Bicine pH 8.5, 25 mM KOAc, 2 mM MgCl2, 37°C
Source text: coupled spectrophotometric assay (pyruvate kinase / lactate dehydrogenase, NADH) on HvGBSSI

[4] = substrate: Nc1ncnc2c1ncn2[C@@H]1O[C@H](COP(=O)(O)OP(=O)(O)O[C@H]2O[C@H](CO)[C@@H](O)[C@H](O)[C@H]2O)[C@@H](O)[C@H]1O; test: as above; format: biochemical, Hordeum vulgare; details: 10 mM maltotriose acceptor, 50 mM Bicine pH 8.5, 25 mM KOAc, 2 mM MgCl2, 37°C; remark: listed apart in the source
Source text: coupled spectrophotometric assay (pyruvate kinase / lactate dehydrogenase, NADH) on HvSSIIIb

ΔTm at 10000 µM (HvSSI): 0.3 °C
Molecule: OC[C@H]1O[C@H](O[C@H]2[C@H](O)[C@@H](O)C(O)O[C@@H]2CO)[C@H](O)[C@@H](O)[C@@H]1O (mixture of isomers) [maltose]

ΔTm at 10000 µM (HvSSI): 0.4 °C
Molecule: C[C@H]1O[C@H](O[C@H]2[C@H](O)[C@@H](O)[C@@H](O[C@H]3[C@H](O)[C@@H](O)C(O)O[C@@H]3CO)O[C@@H]2CO)[C@H](O)[C@@H](O)[C@@H]1N[C@H]1C=C(CO)[C@@H](O)[C@H](O)[C@H]1O (stereo partly shown) [acarbose]

ΔTm at 100000 µM (HvSSI; 100 mM): 1 °C
Molecule: OC[C@H]1OC(O)[C@H](O)[C@@H](O)[C@@H]1O (stereo partly shown) [glucose]

ΔTm at 10000 µM (HvSSI): 2 °C
Molecule: OCC1OC(OC2C(CO)OC(OC3C(CO)OC(OC4C(CO)OC(OC5C(CO)OC(OC6C(CO)OC(OC7C(CO)OC(OC8C(CO)OC(O)C(O)C8O)C(O)C7O)C(O)C6O)C(O)C5O)C(O)C4O)C(O)C3O)C(O)C2O)C(O)C(O)C1O (stereo not shown) [maltooctaose]

ΔTm at 10000 µM (HvSSI): 1.3 °C
Molecule: OC[C@H]1O[C@H](O[C@H]2[C@H](O)[C@@H](O)[C@@H](O[C@H]3[C@H](O)[C@@H](O)[C@@H](O[C@H]4[C@H](O)[C@@H](O)[C@@H](O[C@H]5[C@H](O)[C@@H](O)C(O)O[C@@H]5CO)O[C@@H]4CO)O[C@@H]3CO)O[C@@H]2CO)[C@H](O)[C@@H](O)[C@@H]1O (stereo partly shown) [maltopentaose]

B1: HvSSIV (Hordeum vulgare subsp. vulgare) (protein)
chain: QQRPQRSTAGADHLNTAANVRSDEAAVSAEKERQRKYSDGDGISNLQLEDLVEMIQNTEKNILLLNQARLQAMERADKILKEKEALQRKISILETRLSETDAQHKLSSEGNFSESPLALEFDVLKEENILLKEDIEFFKSKLIEVAKTEEGIFKLEKERALLDASLRELESRFIAAQADMMKLGPRDAWWEKVEKLEDLLETTANQVERAAVILDNNHDLQDKLDKLVASLQAANISKFSSSLVDLLQQKVKLVEERFQACNREMHSQIKLYEHSIVEFHDTLSKLIEESEKRSLENFTGNMPSELWSKISLLIDGWLLEKKISYNDASLLREMVRKRDSRLREAYLSYRGTENREVMDNFLKMALPGTSSGLHIAHIAAEMAPVAKVGGLADVISGLGKALQKKGHLVEIILPKYDCMQVDQVSNLKVLDVPVQSYFEGNMFDNKIWTGTVEGLPVYFIEPQHPAMFFSRAQYYGEHDDFKRFTYFSRAALELLYQSGKKVDIIHCHDWQTAFVAPLYWDVYANLGFNSARICFTCHNFEYQGTAPARDLAWCGLDVEHLDRPDRMRDNSHGRINAVKGAVVYSNIVTTVSPTYALEVLSQGGRGLQDTLKVHSRKFLGILNGIDTDTWNPSTDRYLKVQYNAKDLQGKAANKAALREQLNLASAYPSQPLVGCITRLVAQKGVHLIRHAIYKTAELGGQFVLLGSSPVPEIQREFEGIADHFQDNNNIRLILKYDDALSHCIYAASDMFIVPSIFEPCGLTQMIAMRYGSVPIVRKTGGLNDSVFDFDDETIPVEVRNGFTFVKADEQGLSSAMERAFNCYTRKPEVWKQLVQKDMTIDFSWDTSASQYEDIYQKAVARARAAA
notes: without predicted chloroplast transit peptide, C-terminal His-tag, codon-optimised, E. coli
Km [1]: 310 ± 20 µM

B2: HvSSI (Hordeum vulgare) (protein)
chain: ARLRRVARGRYVAELSREGPAARPAQQLAPPVVPGFLAPPPPAPAQSPAPTQPPLPDAGVGELAPDLLLEGIAEDSIDTIVVAASEQDSEIMDANDQPLAKVTRSIVFVTGEAAPYAKSGGLGDVCGSLPIALAARGHRVMVVMPRYLNGTSDKNYAKALYTGKHIKIPCFGGSHEVTFFHEYRDNVDWVFVDHPSYHRPGSLYGDNFGAFGDNQFRYTLLCYAACEAPLILELGGYIYGQSCMFVVNDWHASLVPVLLAAKYRPYGVYRDSRSTLVIHNLAHQGVEPASTYPDLGLPPEWYGALEWVFPEWARRHALDKGEAVNFLKGAVVTADRIVTVSQGYSWEVTTAEGGQGLNELLSSRKSVLNGIVNGIDINDWNPTTDKCLPHHYSVDDLSGKAKCKAELQRELGLPVREDVPLIGFIGRLDYQKGIDLIKMAIPDLMREDVQFVMLGSGDPVFEGWMRSTESSYKDKFRGWVGFSVPVSHRITAGCDILLMPSRFEPCGLNQLYAMQYGTVPVVHGTGGLRDTVETFNPFGAKGEEGTGWAFSPLTVEKMLWALRTAISTFREHKPSWEGLMKRGMTKDHTWDHAAEQYEQIFEWAFVDQPYVM
notes: without predicted chloroplast transit peptide, N-terminal His-tag, codon-optimised, E. coli
Km [2]: 630 ± 20 µM

B3: HvGBSSI (Hordeum vulgare) (protein)
chain: ATGSGMNLVFVGAEMAPWSKTGGLGDVLGGLPPAMAANGHRVMVVSPRYDQYKDAWDTSVISEIKVADEYERVRFFHCYKRGVDRVFIDHPWFLEKVRGKTKEKIYGPDAGTDYEDNQQRFSLLCQAALEAPRILNLNNNPYFSGPYGEDVVFVCNDWHTGLLACYLKSNYQSNGIYRTAKVAFCIHNISYQGRFSFDDFAQLNLPDRFKSSFDFIDGYDKPVEGRKINWMKAGILQADKVLTVSPYYAEELISGEARGCELDNIMRLTGITGIVNGMDVSEWDPTKDKFLAVNYDITTALEAKALNKEALQAEVGLPVDRKVPLVAFIGRLEEQKGPDVMIAAIPEILKEEDVQIILLGTGKKKFEKLLKSMEEKFPGKVRAVVRFNAPLAHQMMAGADLLAVTSRFEPCGLIQLQGMRYGTPCVCASTGGLVDTIVEGKTGFHMGRLSVDCNVVEPADVKKVATTLKRAVKVVGTPAYQEMVKNCMIQDLSWKGPAKNWEDVLLELGVEGSEPGIVGEEIAPLAMENVAAP
notes: as for B2
Km [3]: 90 ± 20 µM

B4: HvSSIIIb (Hordeum vulgare subsp. vulgare) (protein)
chain: SSDYPKRNPRRSSAPKPKGTASRGYAPRPSAESWTSTKKIEHGSADEDGDLGRSNGTLSGDATEQASTAEEESEVEFAGNVSSSAGLEGVAETEKEADQNQLPALSSTSMDVESVNEATEQTIIGDESSVVDFSGNVSGSVALEVVDESETEEEADQKQSSSLASTSMDSESIDRELEGYRARINALVGASTQEQDRSIIGVHDQDKSVISPNEQDISAVDVPEQGLSGVGVTREDPTKQTTSKQEITEAAVEEISSKNFVARKHSISGDGVEASKNANQQPLVDGDELKITEDEEQHEPEMQEYVRKDVDLQALKRRLEELADGNYSIGNKCFVFPELVKADSVIDLYLNRSMSALASEPDILIKGAFNGWRWNHFTERLHKSELSGDWWCCKLYIPKQAYRLDFVFFNGDTVYENNSYNDFVLHIESDIDEHSFEDFLLEEKQRELERLAAEEAERERQAEEERRKEEERAAMEADRAQAKAEVEMTRNNLQHVLGLASRYANNLWYIEPNTYKGGDRVRLYYNRSSGPLKHKNEIWLHGSYNNWTDGPSIVERLVKSDEQDGDWWYANVTLPESALVLDWVFADGPPGNARKYDNNGKRDFHAAVSKSISEDLFWVKEEHRIFERLQRERKEKEDAGRRKAEITARMKAEMKEKTMREFLLSQKHIVYTEPLEVRAGMTVDVLYNPSNTVLNGSPEVWFRCSFNRWTHPSGPLPPQKMVNAENGSHLQATVRVPLDAYMMDFVFSESEEGGMYDNRDGMDYHIPVSDSMAKEPPMHIVHIAVEMAPIAKVGGLGDVVTSLSRAIQDLGHKVEVVFPKYDCLNLSNVKDLHCRQSFTWGGTEIKVWFGKVEGISVYFLEPQNGMFWVGCVYGRNDESRFGFFCHSALEFLLQSGSSPDIIHCHDWSSAPVAWLYKQHYVHNGLPNGRVVFTIHNLEFGVHHIGKAMAHCDKATTVSYTYSKEVSGHGSIAPHYFKFHGIRNGIDSDIWDPYNDNFIPVHYTSENVVEGKSSAKRALQEKLGLHQTDSPLVGIISRLTAQKGIHLIKHAIYRTLERNGQVVLLGSAPDHRIQGDFSNLASKLHGEFDGRVKLCLTYDEPLSHLIYAGADFILVPSIFEPCGLTQLTAMRYGSIPIVRKTGGLYDTVFDVDDDKDRAREQGLEPNGFSFEGADSNGVDYALDRAITTWYDARGWFHSLCKRVMEQDWSWNRPALDYMELYHSARKN
notes: as for B2
Km [4]: 440 ± 40 µM | kcat [4]: >740 turnovers·min^-1 (DP = 3)
